Source: patent US7662607B2, “Chalaropsis lysozyme protein and its method of use in anti-bacterial applications” (New Century Pharmaceuticals, Inc., priority 2003, dated 2010)

B1: Lysozyme Ch: Lysozyme from fungus Chalaropsis species, N,O-diacetylmuramidase, corrected sequence SEQ ID NO:1 (protein, listed as Chalaropsis sp.)
chain: TVQGFDISSYQPSVNFAGAYSAGARFVIIKATEGTSYTNPSFSSQYTGATNAGFIRGGYHFAHPGETTGAAQADYFIAHGGGWSGDGITLPGMLDLESEGSNPACWGLSAASMVAWIKAFSDRYHAVTGRYPMLYTNPSWWSSCTGNSNAFVNTNPLVLARYASAPGTIPGGWPYQTIWQNSDAYAYGGDSNIFNGSADNLKKLATG

Assays:
Staphylococcus cell wall = experiment: Lysozyme Ch activity, turbidimetric rate determination with Staphylococcus cell wall (absorbance at 600 nm); format: biochemical; conditions: 50 mM Sodium acetate Buffer, pH 4.8, 25° C.
Procedure: In one example, the Chalaropsis Lysozyme PEGylation was carried out using the steps as follows: (1) 15 mg of Chalaropsis Lysozyme and 1.05 g of Methoxypolyethylene glycol succinimidyl succinate (MPSS) was added into 0.1 M Sodium phosphate buffer to make final volume of 10 ml. (2) The mixture was allowed to shake on a rotator for 120 hours. The mixture was run on a SDS-PAGE to verify PEGylation (FIG. 1). (3) The mixture was concentrated with a YM-10 centriprep to a final volume of 1 ml. (4) The protein was loaded onto a XK16 column packed with Sephacryl S-300 resin. Fractions were collected every 2 min, i.e. 2 mls. (5) The following fractions are run on two gels (FIG. 2 and FIG. 3): • Gel1: MW, 28, 30, 35, 40, 45, 50, 55, 60, 65 • Gel2: MW, 70, 75, 80, 83, 85, 90, 95, 99, 105. (6) Based on the gel, it was decided that fractions around tube 55 was fully PEGylated, and thus fractions 53 to 57 were pooled and concentrated. (7) Activity was tested at 1 mg/ml for both native and PEGylated protein. […] PEGylation of Lysozyme Ch
Lysozyme Ch activity was measured with Staphylococcus cell wall in 50 mM Sodium acetate Buffer, pH 4.8 at 25° C. Absorbance at 600 nm is monitored for the turbidimetric rate determination on an Ultrospec 2000 spectrophotometer (Ref. 2).

[1] = tested on: Micrococcus lysodeikticus cells; experiment: HEW Lysozyme activity, turbidimetric rate determination with Micrococcus lysodeikticus cells (absorbance at 450 nm); format: biochemical; conditions: 50 mM Potassium Phosphate Buffer, pH 6.24, 25° C.
Procedure: HEW Lysozyme activity was tested with Micrococcus lysodeikticus cells in 50 mM Potassium Phosphate Buffer, pH 6.24 at 25° C. Absorbance at 450 nm is monitored for the turbidimetric rate determination on an Ultrospec 2000 spectrophotometer (ref).

Molecule	Activity against Staphylococcus cell wall (Staphylococcus cell wall)	Activity with Micrococcus lysodeikticus cells (FIG. 6) [1]
HEW Lysozyme: HEW Lysozyme used as a control	no activity	reduces the absorbance in a non-linear way
PEGylated HEW Lysozyme: HEW Lysozyme PEGylated with MPSS as a control experiment, with or without inhibitors		lost its entire activity
B1	excellent activity	
